Where a name gives a salt, the structure may show the parent alone. Read-outs that look alike come from different tables or passages of the source.
Assays:
Agam\Orco = molecular target: T1, Agam\Orco (Anopheles gambiae, UniProt Q7QCC7); assay: cell-based; type: cell-based
T1 construct: expressed in transfected cells; host or cells: Xenopus laevis oocytes injected with capped cRNA (plasmid pT7TS, gift of L. Zwiebel)
T1 sequence (Q7QCC7 1-478): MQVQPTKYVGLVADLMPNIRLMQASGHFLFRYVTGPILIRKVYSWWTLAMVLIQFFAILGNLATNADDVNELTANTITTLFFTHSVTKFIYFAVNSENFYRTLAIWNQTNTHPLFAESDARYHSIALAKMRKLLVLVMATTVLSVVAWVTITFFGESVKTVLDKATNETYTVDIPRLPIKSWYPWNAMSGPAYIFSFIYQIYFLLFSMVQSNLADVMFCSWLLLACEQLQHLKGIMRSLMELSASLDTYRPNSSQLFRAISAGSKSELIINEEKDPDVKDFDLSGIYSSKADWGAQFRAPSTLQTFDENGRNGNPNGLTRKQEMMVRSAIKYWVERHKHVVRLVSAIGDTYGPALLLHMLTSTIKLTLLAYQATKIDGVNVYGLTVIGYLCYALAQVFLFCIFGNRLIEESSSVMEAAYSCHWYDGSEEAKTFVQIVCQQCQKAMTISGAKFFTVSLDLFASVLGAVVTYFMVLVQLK
Outline: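 Xenopus oocytes injected with 25 ng Agam\Orco cRNA, clamped at −70 mV in ND96 by two-electrode voltage clamp. After two 60 s pulses of 30 μM OLC12, compound applied 90 s then co-applied with OLC12 60 s; response was given as percent of prior OLC12 responses, sham-normalized.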

Agam\Or65 + Agam\Orco = molecular target: T2, Agam\Or65 + Agam\Orco (Anopheles gambiae, UniProt Q7QCC7); assay: Inhibition of heteromeric OR in oocytes (eugenol activation); type: cell-based; conditions: 100 µM antagonist; 100 nM eugenol
T2 construct: expressed in transfected cells; host or cells: Xenopus laevis oocytes
T2 sequence (Q7QCC7 1-478): T1 sequence (Q7QCC7 1-478)
Protocol: (§1) An automated parallel electrophysiology system (OpusExpress 6000 A, Molecular Devices) was used to record Orco agonist (OLC12) or odorant induced currents under two-electrode voltage clamp. Oocytes were perfused with ND96 (in mM: 96 NaCl, 2 KCl, 1 CaCl2, 1 MgCl2, 5 HEPES, pH 7.4). DMSO was used to prepare 1 M or 100 mM stock solutions of test compounds, which were then diluted in ND96 on the day of the experiment. Compounds were applied at a flow rate of 1.0 mL/min, with extensive washing in ND96 at 4.6 mL/min between applications. Micropipettes with resistances of 0.2–2.0 MΩ were filled with 3 M KCl. The holding potential was −70 mV. Current responses were filtered (4-pole, Bessel, low pass) at 20 Hz (−3 db) and sampled at 100 Hz. OpusXpress 1.1 software (Molecular Devices) was used to capture and store current responses.
(§2) To measure the ability of Orco antagonists to inhibit odorant activation, oocytes expressing heteromeric ORs (Orco + ORX) were exposed to a 30 sec application of odorant followed by a 20 min wash. Oocytes were then exposed to a 90 sec application of Orco antagonist, immediately followed by a 30 sec co-application of Orco antagonist and odorant. The current response to odorant in the presence of Orco antagonist was compared to the preceding response to odorant alone and represented as a percentage. This value was then normalized to the value obtained when the assay was run in the absence of antagonist (sham).
(§3) Figure S3. Effects of Orco antagonists on heteromeric ORs. […]
heteromeric complexes of odorant specificity subunits and Orco. The Orco antagonists tested were 3-isopropyl-6-methyl-catechol (3 I6 MC), a potent compound from the input training set, and two compounds id e ntified in Fig u re 4 an d Ta b le 1 : 2-tert-butyl-6-methylphenol (B MP ) and linalyl formate (LF) . […]
SEM (n = 4). […] Statistical significance of the data in each panel was assessed by one-way analysis of variance followed by Dunnett’s […]

Cqui\Or21 + Cqui\Orco = assay: Inhibition of heteromeric OR in oocytes (3-methylindole or OLC12 activation); type: cell-based, Culex quinquefasciatus; conditions: 100 µM antagonist; for inhibition of odorant activation: 30 nM 3-methylindole; for antagonism of OLC12 (Orco agonist) activation of heteromeric OR: 3 µM OLC12
Protocol: as §1, §2, §3
heteromeric complexes of odorant specificity subunits and Orco. The Orco antagonists tested were 3-isopropyl-6-methyl-catechol (3 I6 MC), a potent compound from the input training set, and two compounds id e ntified in Fig u re 4 an d Ta b le 1 : 2-tert-butyl-6-methylphenol (B MP ) and linalyl formate (LF) . These compounds were tested for antagonist activity against odorant activation of three ORs from Anopheles gambiae (Agam\Or28 + Agam\Orco, Agam\Or39 + A ga m\Orco, Agam\Or65 + A ga m\Orco), o ne O R fro m Culex quinquefasciatus, the southern house mosquito (Cq u i\Or21 + Cqui\Orco) an d on e O R f ro m Drosophila melanogaster (Dme l\Or35a + Dmel\Orco). Each OR was activated by its cognate odorant agonist applied at an approximate EC50 concentration. […]
SEM (n = 4). […] Statistical significance of the data in each panel was assessed by one-way analysis of variance followed by Dunnett’s multiple comparison test using the pre-normalized values for each antagonist compared to the values obtained in the sham recordings (*, p < 0 .0 5; **, p < 0. 01; ***, p < 0 . 00 1 ).

SMILES	inhibition of OLC12 activation (Agam\Orco; 100 µM compound, 30 µM OLC12)	IC50 (Agam\Orco; Agam\Orco activated by 30 µM OLC12, read-out: IC50)	inhibition of odorant activation (Agam\Or65 + Agam\Orco)	inhibition of odorant activation (Cqui\Or21 + Cqui\Orco)	antagonism of OLC12 (Orco agonist) activation of heteromeric OR (Cqui\Or21 + Cqui\Orco)	more potent than LF (Agam\Orco)	IC50 (Agam\Orco; 10 µM OLC12, n = 4-7, read-out: IC50 for inhibition of Agam\Orco activation by 10 µM OLC12)	IC50 (Agam\Orco; 100 µM OLC12, n = 3-9, read-out: IC50 for inhibition of Agam\Orco activation by 100 µM OLC12)	mechanism of inhibition of Orco agonist (OLC12) responses (Agam\Orco; 10 vs 100 µM OLC12 shifts inhibition curve)	IC50 (Agam\Orco; Table 1, inhibition of Agam\Orco activated by 30 µM OLC12, mean ± SEM (n = 3–8), read-out: IC50)	IC50 (Agam\Orco; read-out: IC50)
Cc1ccc(C(C)C)c(O)c1O [3I6MC, 3-isopropyl-6-methyl catechol]	strongly inhibited	41 ± 7 µM	could inhibit odorant activation	could inhibit odorant activation	could antagonize OLC12						
Cc1cccc(C(C)(C)C)c1O [BMP, 2-tert-butyl-6-methylphenol]			able to inhibit odorant activation	able to inhibit odorant activation	able to antagonize OLC12	5 fold	12 ± 2 µM	137 ± 38 µM	competitive	48 ± 5 µM	
C=CC(C)(CCC=C(C)C)OC=O (centres unmarked) [LF, linalyl formate]			able to inhibit odorant activation	able to inhibit odorant activation	able to antagonize OLC12						251 ± 39 µM
